This note sets out measurements from US20230381192A1, “METHODS FOR CONTROLLING AND PREDICTING RECOVERY AFTER NMBA ADMINISTRATION” (Cornell University, priority 2020, published 2023).

The test deals with Rhesus monkeys. In words: Spontaneous recovery from NMB (twitch 5% to 95% of baseline) after bolus or infusion in Rhesus monkeys under isoflurane. Format: in vivo, Rhesus monkey. Conditions: for 5%-95% Interval: mean ± SD. The method, then: Rhesus monkeys under isoflurane anesthesia were administered a bolus dose of either RP2000 or RP1000 at a dose equal to 1× to 10× the ED95 in Rhesus monkeys of the administered compound (ED95,Rp1000=0.040 mg/kg; ED95,RP2000=0.053 mg/kg). Twitch (0.15 Hz) and TOF (2 Hz×2 seconds) were recorded throughout the 6 -10 hours experiments. Time to spontaneous recovery after bolus administration, characterized by recovery of twitch from 5% to 95% of baseline was measured.
Separately, continuous infusions of 20-180 minutes duration were given (to separate subjects), and after discontinuation of infusion, time to spontaneous recovery of NMB, characterized by recovery of twitch from 5% to 95% of baseline was measured.

In the case of `COc1ccc(C[C@@H]2c3cc(OC)c(OC)cc3CC[N@@+]2(C)CCCOC(=O)/C=C/C(=O)OCCC[N@+]2(C)CCc3cc(OC)c(OC)cc3[C@H]2Cc2ccc(OC)c(OC)c2)cc1OC.[Cl-].[Cl-]` [RP1000], for the setting “Rhesus monkeys, isoflurane anesthesia”, the “ED95 in Rhesus monkeys” value is 0.040 mg/kg. Further, the “5%-95% Interval” value (after continuous infusion of 20-180 minutes) is listed as 13.1 ± 3.7 min; the “5%-95% Interval” value (bolus dose 0.05 mg/kg) was 15.3 ± 7.5 min; the “5%-95% Interval” value (bolus dose 0.10 mg/kg) worked out at 14.3 ± 6.5 min; the “5%-95% Interval” value (bolus dose 0.20 mg/kg) is reported as 13.3 ± 4.4 min; the “5%-95% Interval” value (bolus dose 0.40 mg/kg) turned out to be 15.5 ± 5.1 min.
